32 molecules from patent US20240190868A1, “SOS1 INHIBITORS” (Acerand Therapeutics (USA) Limited, priority 2022, published 2024) can be followed below.

By IC50 is commonly meant the concentration that inhibits the measured activity by half.

In this assay the test system is cellular pERK in NCI-H1975 cells (EGFR/L858R-T790M). Kind of assay: pERK potency assay (In Cell ELISA). Type of assay: cell-based. The settings on record: Homo sapiens, 1 h compound incubation. From the text: The assay measures the ability of a compound to inhibit SOS1 function in cells. SOS1 activates RAS proteins by catalyzing the conversion of RAS GDP to RAS GTP in response to receptor tyrosine kinase activation. Activation of RAS induces a sequence of cellular signaling events that result in increased phosphorylation of ERK at Threonine 202 and Tyrosine 204 (pERK). The procedure (i.e., In Cell ELISA as described below) measures the level of cellular pERK in response to a test compound in NCI-H1975 cells (EGFR/L858R-T790M).
First, NCI-H1975 cells were grown and maintained using media and procedures recommended by the ATCC. A day before compound addition, cells were plated in poly-D-lysine coated 96-well cell culture plates (Corning® BioCoat® Cat #356640) at 25000 cells/well/100 μL and grown overnight in an incubator at 37° C. with 5% CO2. A solution of a test compound was prepared with 3-fold serial dilutions in DMSO having a top concentration of 6 mM. On the day of the assay, 50 μL of a test compound dilution in media was added to each well of cell culture plate with a final compound concentration in the range of 0.001 μM to 20 μM. After addition of the compound, cells were incubated for 1 h at 37° C. with 5% CO2, after which the culture medium was removed. Cells were fixed with 4% formaldehyde in phosphate-buffered saline (PBS) and incubated at RT for 20 min. The plate was washed three times with PBST (PBS with 0.05% Tween®-20), followed by incubation with 100 μL of pre-cooled methanol at −20° C. for 20 min. After incubation, methanol was removed. The plate was again washed with PBST. Cells were then permeabilized with 100 μL/well of 0.1% Triton X-100 in PBS at RT for 20 min and then quenched with a quenching buffer (PBST containing 1% H2O2 and 0.1% sodium azide) for 20 min at RT with gentle shaking. After washing once with PBST, a blocking buffer (250 uL/well, Pierce™ Protein-Free-PBS Blocking Buffer, Cat #37572) was then added to the cells for 1-h incubation at RT, followed by an anti-pERK antibody (cell signaling, 1:1000 dilution in 5% BSA in PBST) incubation overnight at 4° C. and a secondary antibody-HRP (Jackson immunoresearch, 1:3000 dilution in 5% BSA in PBST) incubation at RT for 1 h. PBST wash was carried out after each step three times. Before the addition of a substrate (Advansta ELISABright™), the plate was washed with PBS twice to remove detergent residues. The Cellular pERK level was determined using the microplate reader (Biotek Synergy™ H1) to detect the chemiluminescence signal. IC50 was determined by fitting a 4-parameter sigmoidal concentration-response model.
In general terms: In an ELISA, binding on a coated surface is turned into a signal by an enzyme label.
Take `CC(=O)N1CCC(F)(c2cc3/c(=N/[C@H](C)c4cccc(C#N)c4C)nc4n(c3cn2)CCC4)CC1` [Compound 30]: the IC50 is less than 100 nM.
For the molecule `Cc1c([C@@H](C)/N=c2\nc3n(c4cnc(C5(C(F)F)CC5)cc24)CCC3)cccc1C(F)(F)F` [Compound 31, (R,Z)-3-(1-(difluoromethyl)cyclopropyl)-N-(1-(2-methyl-3-(trifluoromethyl)phenyl)ethyl)-8,9-dihydropyrido[4,3-e]pyrrolo[1,2-a]pyrimidin-5(7H)-imine], the IC50 was less than 100 nM.
`CC(=O)N1CC=C(c2cc3/c(=N/[C@H](C)c4cccc(C(F)(F)F)c4C)nc4n(c3cn2)CCO4)CC1` [Compound 32, (R,Z)-1-(4-(5-((1-(2-methyl-3-(trifluoromethyl)phenyl)ethyl)imino)-8,9-dihydro-5H-oxazolo[3,2-a]pyrido[4,3-e]pyrimidin-3-yl)-3,6-dihydropyridin-1(2H)-yl)ethan-1-one]: the IC50 is less than 100 nM.
The same measure for `CC(=O)N1CCC(F)(c2cc3/c(=N/[C@H](C)c4cccc(C(F)(F)F)c4C)nc4n(c3cn2)CCO4)CC1` [Compound 33, (R,Z)-1-(4-fluoro-4-(5-((1-(2-methyl-3-(trifluoromethyl)phenyl)ethyl)imino)-8,9-dihydro-5H-oxazolo[3,2-a]pyrido[4,3-e]pyrimidin-3-yl)piperidin-1-yl)ethan-1-one]: less than 100 nM; for `CC(=O)N1CC=C(c2cc3/c(=N/[C@H](C)c4cccc(C#N)c4C)nc4n(c3cn2)CCO4)CC1` [Compound 34]: less than 100 nM; for `CC(=O)N1CCC(F)(c2cc3/c(=N/[C@H](C)c4cccc(C#N)c4C)nc4n(c3cn2)CCO4)CC1` [Compound 35]: less than 100 nM.
As for `Cc1c([C@@H](C)/N=c2\nc(C)n(C)c3ccc(C4=CCOCC4)cc23)cccc1C(F)(F)F` [Compound 36], the IC50 was less than 100 nM.
Under `CC(=O)N1CC=C(c2ccc3c(c2)/c(=N/[C@H](C)c2cccc(C(F)(F)F)c2C)nc(C)n3C)CC1` [Compound 37] stands less than 100 nM.
Under `Cc1c(C#N)cccc1[C@@H](C)/N=c1\nc(C)n(C)c2ccc(C3=CCOCC3)cc12` [Compound 38] stands less than 100 nM; under `Cc1c([C@@H](C)/N=c2\nc(C)n(C)c3cnc(C4=CCOCC4)cc23)cccc1C(F)(F)F` [Compound 39], less than 100 nM.
The same measure for `Cc1c(C#N)cccc1[C@@H](C)/N=c1\nc(C)n(C)c2cnc(C3=CCC(F)(F)CC3)cc12` [Compound 40]: less than 100 nM; for `Cc1c(C#N)cccc1[C@@H](C)/N=c1\nc(C)n(C)c2cnc(C3=CCOCC3)cc12` [Compound 41]: less than 100 nM; for `Cc1c([C@@H](C)/N=c2\nc(C)n(C)c3cnc(C4=CCN(S(C)(=O)=O)CC4)cc23)cccc1C(F)(F)F` [Compound 42, (R,Z)-1,2-dimethyl-N-(1-(2-methyl-3-(trifluoromethyl)phenyl)ethyl)-6-(1-(methylsulfonyl)-1,2,3,6-tetrahydropyridin-4-yl)pyrido[3,4-d]pyrimidin-4(1H)-imine]: less than 100 nM.
Consider `Cc1c([C@@H](C)/N=c2\nc(C)n(C)c3cnc(C4=CCN(C(N)=O)CC4)cc23)cccc1C(F)(F)F` [Compound 43, (R,Z)-4-(1,2-dimethyl-4-((1-(2-methyl-3-(trifluoromethyl)phenyl)ethyl)imino)-1,4-dihydropyrido[3,4-d]pyrimidin-6-yl)-3,6-dihydropyridine-1(2H)-carboxamide], for which the concentration for half-maximal inhibition (IC50) was less than 100 nM.
The same measure for `CC(=O)N1CCC(F)(c2cc3/c(=N/[C@H](C)c4cccc(C(F)(F)F)c4C)nc(C)n(C)c3cn2)C[C@H]1C` (stereo partly drawn) [Compound 45, 1-((2R)-4-((Z)-1,2-dimethyl-4-(((R)-1-(2-methyl-3-(trifluoromethyl)phenyl)ethyl)imino)-1,4-dihydropyrido[3,4-d]pyrimidin-6-yl)-4-fluoro-2-methylpiperidin-1-yl)ethan-1-one]: less than 100 nM.
The same measure for `CC(=O)N1CCC(F)(c2cc3/c(=N/[C@H](C)c4cccc(C(F)(F)F)c4C)nc(C)n(C)c3cn2)CC1(C)C` (stereo partly drawn) [Compound 46, 1-(4-((Z)-1,2-dimethyl-4-(((R)-1-(2-methyl-3-(trifluoromethyl)phenyl)ethyl)-imino)-1,4-dihydropyrido[3,4-d]pyrimidin-6-yl)-4-fluoro-2,2-dimethylpiperidin-1-yl)ethan-1-one]: less than 100 nM; for `Cc1c([C@@H](C)/N=c2\nc(C)n(C)c3cnc(-c4ccn5c(C(F)(F)F)ncc5c4)cc23)cccc1C(F)(F)F` [Compound 47, (R,Z)-1,2-dimethyl-N-(1-(2-methyl-3-(trifluoromethyl)phenyl)ethyl)-6-(3-(trifluoromethyl)imidazo[1,5-a]pyridin-7-yl)pyrido[3,4-d]pyrimidin-4(1H)-imine]: less than 100 nM; for `Cc1c([C@@H](C)/N=c2\nc(C)n(C)c3cnc(N4CCC(F)(F)CC4)cc23)cccc1C(F)(F)F` [Compound 48, (R,Z)-6-(4,4-difluoropiperidin-1-yl)-1,2-dimethyl-N-(1-(2-methyl-3-(trifluoromethyl)phenyl)ethyl)pyrido[3,4-d]pyrimidin-4(1H)-imine]: less than 100 nM.
The same measure for `CC(=O)N1CCN(c2cc3/c(=N/[C@H](C)c4cccc(C(F)(F)F)c4C)nc(C)n(C)c3cn2)CC1` [Compound 49]: less than 100 nM.
On to `Cc1c([C@@H](C)/N=c2\nc(C)n(C)c3cnc(N4CCC5(CC5)C4)cc23)cccc1C(F)(F)F` [Compound 50], for which the IC50 was less than 100 nM.
Under `Cc1c([C@@H](C)/N=c2\nc(C)n(C)c3cnc(N4CCC5(CC4)CC5)cc23)cccc1C(F)(F)F` [Compound 51] stands less than 100 nM; under `Cc1c([C@@H](C)/N=c2\nc(C)n(C)c3cnc(N4CCO[C@H](C)C4)cc23)cccc1C(F)(F)F` [Compound 52], less than 100 nM; under `CC(=O)N1CCN(c2cnc3c(c2)/c(=N/[C@H](C)c2cccc(C(F)(F)F)c2C)nc(C)n3C)CC1` [Compound 53], less than 100 nM.
As for `Cc1c(C#N)cccc1[C@@H](C)/N=c1\nc(C)n(C)c2cnc(N3CCOCC3)cc12` [Compound 54, (R,Z)-3-(1-((1,2-dimethyl-6-morpholinopyrido[3,4-d]pyrimidin-4(1H)-ylidene)amino)ethyl)-2-methylbenzonitrile], the IC50 was less than 100 nM.
Consider `Cc1c([C@@H](C)/N=c2\nc(C)n(C)c3cnc(N4CCOCC4)cc23)cccc1C(F)(F)F` [Compound 55], for which the IC50 was less than 100 nM.
Under `CC(=O)N1CCN(c2cc3/c(=N/[C@H](C)c4cccc(C#N)c4C)nc(C)n(C)c3cn2)CC1` [Compound 56] stands less than 100 nM; under `Cc1c(C#N)cccc1[C@@H](C)/N=c1\nc(C)n(C)c2cnc(N3CCCC3)cc12` [Compound 57], less than 100 nM.
Under `Cc1c(C#N)cccc1[C@@H](C)/N=c1\nc(C)n(C)c2cnc(N3CCC(F)(F)CC3)cc12` [Compound 59] stands less than 100 nM.
Under `Cc1c(C#N)cccc1[C@@H](C)/N=c1\nc(C)n(C)c2cnc(N3CCC4(CC3)CC4)cc12` [Compound 60] stands less than 100 nM; under `Cc1c(C#N)cccc1[C@@H](C)/N=c1\nc(C)n(C)c2cnc(N3CCO[C@H](C)C3)cc12` [Compound 61], less than 100 nM.
As for `Cc1c([C@@H](C)/N=c2\nc(C)n(C)c3cnc(N4CCC(F)(F)C4)cc23)cccc1C(F)(F)F` [Compound 62], the IC50 is less than 100 nM.
Under `Cc1c(C#N)cccc1[C@@H](C)/N=c1\nc(C)n(C)c2cnc(N3CCCCC3)cc12` [Compound 64] stands less than 100 nM.
